Experimental data reported in PMC10298530, “Synthesis and Anticancer Activity of A-Ring-Modified Derivatives of Dihydrobetulin” (International Journal of Molecular Sciences, 2023).

Tests used:
MCF-7 = experiment: MTT cell viability assay, MCF-7; assay type: cell-based, human; settings: Homo sapiens, MCF7; Table S1, MCF-7; read-out: IC50 (mean ± SD)
Excerpt: (§1) Blokhin National Medical Research Center of Oncology (the Ministry of Health of the Russian Federation, Moscow).

HBL-100 = experiment: MTT cell viability assay, HBL-100; assay type: cell-based, human; settings: Homo sapiens; Table S1, HBL-100; read-out: IC50 (mean ± SD)
Experimental: (§2) The cells were cultured in a humidified CO2 incubator (model 460-CE; Thermo Fisher Scientific, Waltham, MA, USA) at +37 °C and 5% CO2.
(§3) The percentage of the viable cells was calculated according to the following equation: cell viability (%) = 100 × (mean absorbance in the treatment group/mean absorbance in the control group). The results were expressed pictorially using Prism 6.0 (GraphPad Software, Boston, MA, USA).

HBL-100/Dox = experiment: MTT cell viability assay, HBL-100/Dox; assay type: cell-based, human; settings: Homo sapiens, HBL-100; read-out: IC50 (mean ± SD)
Experimental: as §2, §3

HEK293 = experiment: MTT cell viability assay, HEK293; assay type: cell-based; settings: Homo sapiens; Table S1, HEK293; read-out: IC50 (mean ± SD)
Excerpt: as §1

RD TE32 = experiment: MTT cell viability assay, RD TE32; assay type: cell-based, human; settings: Homo sapiens; Table S1, RD TE32; read-out: IC50 (mean ± SD)
Excerpt: as §1

HEpG2 = experiment: MTT cell viability assay, HEpG2; assay type: cell-based, human; settings: Homo sapiens; Table S1, HEpG2; read-out: IC50 (mean ± SD)
Excerpt: as §1

PC-3 = experiment: MTT cell viability assay, PC-3; assay type: cell-based, human; settings: Homo sapiens; Table S1, PC-3; read-out: IC50 (mean ± SD)
Excerpt: as §1

HCT116 = experiment: MTT cell viability assay, HCT116; assay type: cell-based, human; settings: Homo sapiens, HCT-116; Table S1, HCT116; read-out: IC50 (mean ± SD)
Excerpt: as §1

A549 = experiment: MTT cell viability assay, A549; assay type: cell-based, human; settings: Homo sapiens; Table S1, A549; read-out: IC50 (mean ± SD)
Excerpt: as §1

MS = experiment: MTT cell viability assay, MS; assay type: cell-based, human; settings: Homo sapiens; Table S1, MS; read-out: IC50 (mean ± SD);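 note: MS is a melanocyte cell line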
Excerpt: as §1

Compound: C=C(C=O)C1CC[C@]2(C)C(CCC3C4C(C(C)C)CC[C@]4(COC(=O)c4ccccc4)CC[C@]32C)[C@@]1(C)CCC#N (some centres unmarked) [compound 4, 28-Benzoyloxy-2-cyano-3,4-seco-3-norlup-4(23)-en-24-al]
- IC50 (MCF-7): > 200 µM
- IC50 (HBL-100): > 100 µM
- IC50 (HBL-100/Dox): > 100 µM
- IC50 (HEK293): > 100 µM
- IC50 (RD TE32): > 100 µM
- IC50 (HEpG2): > 100 µM
- IC50 (PC-3): > 100 µM
- melting point: 176.5 °C
- IC50 (HCT116): > 200 µM
- IC50 (A549): > 100 µM
- IC50 (MS): > 100 µM

Compound: C=C(C=O)C1CC[C@]2(C)C(CCC3C4C(C(C)C)CC[C@]4(C(=O)OC)CC[C@]32C)[C@@]1(C)CCC#N (some centres unmarked) [compound 5, 2-Cyano-3,4-seco-3-norlup-4(23)-en-24-al-28-oic acid methyl ester]
- IC50 (MCF-7): > 200 µM
- IC50 (HBL-100): > 200 µM
- IC50 (HBL-100/Dox): > 100 µM
- IC50 (HEK293): > 200 µM
- IC50 (RD TE32): > 100 µM
- IC50 (HEpG2): > 100 µM
- IC50 (PC-3): > 100 µM
- melting point: 97.3 °C
- IC50 (HCT116): > 200 µM
- IC50 (A549): > 100 µM
- IC50 (MS): > 100 µM

Compound: C=C(CBr)C1CC[C@]2(C)C(CCC3C4C(C(C)C)CC[C@]4(COC(=O)c4ccccc4)CC[C@]32C)[C@@]1(C)CCC#N (some centres unmarked) [compound 6, 28-Benzoyloxy-24-bromo-2-cyano-3,4-seco-3-norlup-4(23)-ene]
- IC50 (MCF-7): > 200 µM
- IC50 (HBL-100): > 100 µM
- IC50 (HBL-100/Dox): > 200 µM
- IC50 (HEK293): > 200 µM
- IC50 (RD TE32): > 200 µM
- IC50 (HEpG2): > 100 µM
- IC50 (PC-3): > 100 µM
- melting point: 87.9 °C
- IC50 (HCT116): > 200 µM
- IC50 (A549): > 100 µM
- IC50 (MS): > 100 µM

Compound: C=C(CBr)C1CC[C@]2(C)C(CCC3C4C(C(C)C)CC[C@]4(C(=O)OC)CC[C@]32C)[C@@]1(C)CCC#N (some centres unmarked) [compound 7, 24-Bromo-2-cyano-3,4-seco-3-norlup-4(23)-en-28-oic acid methyl ester]
- IC50 (MCF-7): > 100 µM
- IC50 (HBL-100): > 200 µM
- IC50 (HBL-100/Dox): > 200 µM
- IC50 (HEK293): > 100 µM
- IC50 (RD TE32): > 200 µM
- IC50 (HEpG2): > 100 µM
- IC50 (PC-3): > 100 µM
- melting point: 72.7 °C
- IC50 (HCT116): > 200 µM
- IC50 (A549): > 100 µM
- IC50 (MS): > 100 µM

Compound: C=C1C=C(C#N)C[C@@]2(C)C1CC[C@]1(C)C2CCC2C3C(C(C)C)CC[C@]3(CO)CC[C@]21C (some centres unmarked) [compound 8, 2-Cyano-28-hydroxy-3,4-seco-3-nor-2,24-cyclolup-2(24),4(23)-diene]
- IC50 (MCF-7): > 100 µM
- IC50 (HBL-100): > 100 µM
- IC50 (HBL-100/Dox): > 200 µM
- IC50 (HEK293): > 100 µM
- IC50 (RD TE32): > 200 µM
- IC50 (HEpG2): > 100 µM
- IC50 (PC-3): > 100 µM
- melting point: 196.1 °C
- IC50 (HCT116): > 200 µM
- IC50 (A549): > 100 µM
- IC50 (MS): > 100 µM

Compound: C=C1C2CC[C@]3(C)C(CCC4C5C(C(C)C)CC[C@]5(CO)CC[C@]43C)[C@@]2(C)C[C@@H](C#N)[C@@H]1O (stereo partly drawn) [compound 9, 2-Cyano-24β,28-dihydroxy-3,4-seco-3-nor-2,24-cyclolup-4(23)-ene]
- IC50 (MCF-7): > 200 µM
- IC50 (HBL-100): > 200 µM
- IC50 (HBL-100/Dox): > 100 µM
- IC50 (HEK293): > 100 µM
- IC50 (RD TE32): > 100 µM
- IC50 (HEpG2): > 100 µM
- IC50 (PC-3): > 100 µM
- melting point: 170.1 °C
- IC50 (HCT116): > 100 µM
- IC50 (A549): > 100 µM
- IC50 (MS): > 100 µM

Compound: C=C1C=C(C#N)C[C@@]2(C)C1CC[C@]1(C)C2CCC2C3C(C(C)C)CC[C@]3(C(=O)OC)CC[C@]21C (some centres unmarked) [compound 10, 2-Cyano-3,4-seco-3-nor-2,24-cyclolup-2(24),4(23)-dien-28-oic acid methyl ester]
- IC50 (MCF-7): > 100 µM
- IC50 (HBL-100): > 100 µM
- IC50 (HBL-100/Dox): > 200 µM
- IC50 (HEK293): > 200 µM
- IC50 (RD TE32): > 100 µM
- IC50 (HEpG2): > 100 µM
- IC50 (PC-3): > 100 µM
- melting point: 76.6 °C
- IC50 (HCT116): > 200 µM
- IC50 (A549): > 100 µM
- IC50 (MS): > 100 µM

Compound: C=C1C2CC[C@]3(C)C(CCC4C5C(C(C)C)CC[C@]5(C(=O)OC)CC[C@]43C)[C@@]2(C)C[C@@H](C#N)[C@@H]1O (stereo partly drawn) [compound 11, 2-Cyano-24β-hydroxy-3,4-seco-3-nor-2,24-cyclolup-4(23)-en-28-oic acid methyl ester]
- IC50 (MCF-7): > 100 µM
- IC50 (HBL-100): 73.3 ± 1.51 µM
- IC50 (HBL-100/Dox): > 200 µM
- IC50 (HEK293): > 200 µM
- IC50 (RD TE32): > 200 µM
- IC50 (HEpG2): > 100 µM
- IC50 (PC-3): > 100 µM
- melting point: 133.9 °C
- IC50 (HCT116): > 200 µM
- IC50 (A549): > 100 µM
- IC50 (MS): > 100 µM

Compound: C=C1C[C@H](C#N)C[C@@]2(C)C1CC[C@]1(C)C2CCC2C3C(C(C)C)CC[C@]3(C(=O)OC)CC[C@]21C (some centres unmarked) [compound 13, 2-Cyano-3,4-seco-3-nor-2,24-cyclolup-4(23)-en-28-oic acid methyl ester]
- IC50 (MCF-7): > 100 µM
- IC50 (HBL-100): > 100 µM
- IC50 (HBL-100/Dox): > 200 µM
- IC50 (HEK293): > 200 µM
- IC50 (RD TE32): > 100 µM
- IC50 (HEpG2): > 100 µM
- IC50 (PC-3): > 100 µM
- melting point: 177.7 °C
- IC50 (HCT116): > 100 µM
- IC50 (A549): > 100 µM
- IC50 (MS): > 100 µM

Compound: COC(=O)[C@]12CCC(C(C)C)C1C1CCC3[C@@]4(C)CC(C#N)=CC(=O)C4CC[C@@]3(C)[C@]1(C)CC2 (some centres unmarked) [compound 15, 2-Cyano-4-oxo-3,4-seco-3,23-dinor-2,24-cyclolup-2(24)-en-28-oic acid methyl ester]
- IC50 (MCF-7): > 100 µM
- IC50 (HBL-100): > 100 µM
- IC50 (HBL-100/Dox): > 100 µM
- IC50 (HEK293): > 100 µM
- IC50 (RD TE32): > 100 µM
- IC50 (HEpG2): > 100 µM
- IC50 (PC-3): > 100 µM
- melting point: 69.7 °C
- IC50 (HCT116): > 100 µM
- IC50 (A549): > 100 µM
- IC50 (MS): > 100 µM

Compound: CC(C)C1CC[C@]2(CO)CC[C@]3(C)C(CCC4[C@@]5(C)C[C@@H](C#N)CC(=O)C5CC[C@]43C)C12 (some centres unmarked) [compound 16, 2-Cyano-28-hydroxy-4-oxo-3,4-seco-3,23-dinor-2,24-cyclolupane]
- IC50 (MCF-7): > 100 µM
- IC50 (HBL-100): > 100 µM
- IC50 (HBL-100/Dox): > 200 µM
- IC50 (HEK293): > 100 µM
- IC50 (RD TE32): > 100 µM
- IC50 (HEpG2): > 100 µM
- IC50 (PC-3): > 100 µM
- melting point: 166.6 °C
- IC50 (HCT116): > 200 µM
- IC50 (A549): > 100 µM
- IC50 (MS): > 100 µM

Compound: COC(=O)[C@]12CCC(C(C)C)C1C1CCC3[C@@]4(C)C[C@@H](C#N)CC(=O)C4CC[C@@]3(C)[C@]1(C)CC2 (some centres unmarked) [compound 17, 2-Cyano-4-oxo-3,4-seco-3,23-dinor-2,24-cyclolup-28-oic acid methyl ester]
- IC50 (MCF-7): > 100 µM
- IC50 (HBL-100): > 200 µM
- IC50 (HBL-100/Dox): > 200 µM
- IC50 (HEK293): > 100 µM
- IC50 (RD TE32): > 100 µM
- IC50 (HEpG2): > 100 µM
- IC50 (PC-3): > 100 µM
- melting point: 220.8 °C
- IC50 (HCT116): > 100 µM
- IC50 (A549): > 100 µM
- IC50 (MS): > 100 µM

Compound: CC(C)C1CC[C@]2(CO)CC[C@]3(C)C(CCC4[C@@]5(C)C[C@@H](C#N)C[C@H](O)C5CC[C@]43C)C12 (stereo partly drawn) [compound 18, 2-Cyano-4β,28-dihydroxy-3,4-seco-3,23-dinor-2,24-cyclolupane]
- IC50 (MCF-7): > 100 µM
- IC50 (HBL-100): > 100 µM
- IC50 (HBL-100/Dox): > 200 µM
- IC50 (HEK293): > 100 µM
- IC50 (RD TE32): > 200 µM
- IC50 (HEpG2): > 100 µM
- IC50 (PC-3): > 100 µM
- melting point: 205.7 °C
- IC50 (HCT116): > 200 µM
- IC50 (A549): > 100 µM
- IC50 (MS): > 100 µM
